{"source": "patent US20250316361A1", "about": "“SYSTEMS AND METHODS FOR ESTIMATING, FROM FOOD FREQUENCY QUESTIONNAIRE BASED NUTRIENTS INTAKE DATA, THE RELATIVE AMOUNTS OF FAECALIBACTERIUM PRAUSNITZII (FPRAU) IN THE GUT MICROBIOME ECOSYSTEM AND ASSOCIATED RECOMMENDATIONS TO IMPROVE FAECALIBACTERIUM PRAUSNITZII” (SOCIETE DES PRODUITS NESTLE S.A., priority 2021, published 2025)", "key": {"[1]": {"tested_on": "Faecalibacterium prausnitzii (F. prau)", "test": "in vitro stool fermentation, quantitative PCR specifically targeting F. prau", "format": "cell-based", "details": "stool inoculum in minimal media, anaerobic, 37 degrees Celsius", "experimental": "(§1) Stool samples were collected from a healthy adult donor under human study protocol. Upon the reception of the stool samples, small aliquots were prepared with storage buffer (PBS and 10% glycerol) and were stored at −80 degrees Celsius before use. For each experiment, 250 μL of stool aliquot was inoculated in a 10 mL Hungate tube filled with a minimal bacteria culture media under a strict anaerobic condition (Oxygen <3 ppm) inside of an anaerobic chamber. Different nutrients or nutrient combinations, shown in Table 1, were added to the culture media at time 0 and the tubes were incubated at 37 degrees Celsius for 24 or 48 hours. The growth of Faecalibacterium prausnitzii (F. prau) was examined by two methods: quantitative PCR specifically targeting F. prau and 16S microbial rRNA gene sequencing.\nFirst, we examined the absolute quantity of F. prau in the community after 24 or 48 hours (FIGS. 6A and 6B)."}, "[2]": {"tested_on": "Faecalibacterium ASVs (ASV6)", "test": "in vitro stool fermentation, 16S microbial rRNA gene sequencing of Faecalibacterium ASVs", "format": "cell-based, Faecalibacterium prausnitzii", "experimental": "as §1\nF. prau is heterogenic and genetically diverse. Thus, in this next experiment, we examined if nutrient or nutrient combinations favor specific F. prau to grow in a mixed community."}}}
{"substance": "inulin", "values": [{"measurement": "absolute quantity of F. prau in the community versus control", "setting": "[1]; 24 hours, FIG. 6A", "result": "at least twice as much as control"}, {"measurement": "absolute quantity of F. prau in the community", "setting": "[1]; 48 hours, FIG. 6B", "result": "able to maintain a high amount of F. prau"}, {"measurement": "response of Faecalibacterium ASV1, 6, 9, 12 and 13", "setting": "[2]; 14 genetically different Faecalibacterium found, time not stated", "result": "responded positively"}, {"measurement": "response of F. prau ASV6 (figure legend)", "setting": "[2]; samples collected after 24 hours and after 48 hours, FIG. 7", "result": "responded"}]}
